# Measurements from patent US9783537B2, “3-(4-ethylnylphenyl) pyridopyrimidinone compounds and process for preparation thereof useful as potential anticancer agents” (Council of Scientific & Industrial Research, priority 2013, dated 2017).
# Like-named read-outs stand apart in the source and are kept apart here.
# Legend:
# T-47D = assay: SRB 48 h growth assay, Breast T-47D; assay type: cell-based, human
# HOP-62 = assay: SRB 48 h growth assay, Non-small Cell Lung HOP-62; assay type: cell-based, human; conditions: HOP-62, Non-small Cell Lung
# SK-MEL-2 = assay: SRB 48 h growth assay, Melanoma SK-MEL-2; assay type: cell-based, human; conditions: SK-MEL-2, Melanoma
# HCC-2998 = assay: SRB 48 h growth assay, Colon HCC-2998; assay type: cell-based, human; conditions: HCC-2998, Colon
# MCF7 = assay: SRB 48 h growth assay, Breast MCF7; assay type: cell-based, human
# MDA-MB-435 = assay: SRB 48 h growth assay, Melanoma MDA-MB-435; assay type: cell-based, human; conditions: MDA-MB-435, Melanoma
# [1] = tested on: six leukemia cancer cell lines (CCRF-CEM, HL-60, K-562, MOLT-4, SR and RPMI-8226); assay: in vitro anticancer activity, leukemia panel; assay type: cell-based; conditions: Homo sapiens, exposure at least 48 h, read-out: GI50, range over panel
# RXF393 = assay: SRB 48 h growth assay, Renal RXF393; assay type: cell-based, human
# SW-620 = assay: SRB 48 h growth assay, Colon SW-620; assay type: cell-based, human; conditions: SW-620, Colon
# [2] = tested on: two prostate cancer cell line (PC-3, DU-145); assay: in vitro anticancer activity, prostate panel; assay type: cell-based; conditions: Homo sapiens; two prostate cancer cell lines, exposure at least 48 h; read-out: GI50, range over panel
# SK-MEL-28 = assay: SRB 48 h growth assay, Melanoma SK-MEL-28; assay type: cell-based, human; conditions: SK-MEL-28, Melanoma
# OVCAR-5 = assay: SRB 48 h growth assay, Ovarian OVCAR-5; assay type: cell-based, human; conditions: OVCAR-5, Ovarian
# SN12C = assay: SRB 48 h growth assay, Renal SN12C; assay type: cell-based, human
# LOX IMVI = assay: SRB 48 h growth assay, Melanoma LOX IMVI; assay type: cell-based, human
# SF-268 = assay: SRB 48 h growth assay, CNS SF-268; assay type: cell-based, human; conditions: SF-268, CNS
# BT-549 = assay: SRB 48 h growth assay, Breast BT-549; assay type: cell-based, human; conditions: BT-549, Breast
# MDA-MB-468 = assay: SRB 48 h growth assay, Breast MDA-MB-468; assay type: cell-based, human; conditions: MDA-MB-468, Breast
# HS578T = assay: SRB 48 h growth assay, Breast HS578T; assay type: cell-based, human
# SNB-19 = assay: SRB 48 h growth assay, CNS SNB-19; assay type: cell-based, human; conditions: SNB-19, CNS
# DU-145 = assay: SRB 48 h growth assay, Prostate DU-145; assay type: cell-based, human; conditions: DU-145, Prostate
# [3] = tested on: six breast cancer cell line (MCF-7, MDA-MB-231/ATCC, HS 578T, TD-47D, MDA-MB-468 and BT-549); assay: in vitro anticancer activity, breast panel; assay type: cell-based; conditions: Homo sapiens; six breast cancer cell lines, exposure at least 48 h; read-out: GI50, range over panel
# HL-60(TB) = assay: SRB 48 h growth assay, Leukemia HL-60(TB); assay type: cell-based, human
# NCI-H322M = assay: SRB 48 h growth assay, Non-small Cell Lung NCI-H322M; assay type: cell-based, human
# KM12 = assay: SRB 48 h growth assay, Colon KM12; assay type: cell-based, human
# NCI-H23 = assay: SRB 48 h growth assay, Non-small Cell Lung NCI-H23; assay type: cell-based, human
# [4] = in vitro anticancer activity, non-small cell lung panel; assay type: cell-based; conditions: Homo sapiens; nine non-small cell lung cancer cell lines, exposure at least 48 h; read-out: GI50, range over panel
# ACHN = assay: SRB 48 h growth assay, Renal ACHN; assay type: cell-based, human
# [5] = Homo sapiens, read-out: Growth Inhibition GI50
# [6] = Homo sapiens, read-out: Log10 GI50 (converted)
# [7] = Homo sapiens, read-out: Log10 LC50 (converted)
smiles,measurement,setting,value
"C#Cc1ccc(-n2c(/C=C/c3ccc(O)cc3)nc3ncccc3c2=O)cc1 [4b, (E)-3-(4-Ethynylphenyl)-2-(4-hydroxystyryl)pyrido[2,3-d]pyrimidin-4(3H)-one]",Log10 TGI50,T-47D,>−4.00
same,GI50,"T-47D; Homo sapiens, T47D, read-out: Growth Inhibition GI50",4.63 µM
same,GI50,"T-47D; Homo sapiens, T47D, read-out: Log10 GI50 (converted)",4.68 µM
same,CC50,"T-47D; Homo sapiens, T47D, read-out: Log10 LC50 (converted)",> 100 µM
same,Log10 TGI50,HOP-62,−4.25
same,GI50,HOP-62; [5],5.66 µM
same,GI50,HOP-62; [6],5.62 µM
same,CC50,HOP-62; [7],> 100 µM
same,GI50,SK-MEL-2; [5],3.95 µM
same,GI50,SK-MEL-2; [6],3.98 µM
same,CC50,SK-MEL-2; [7],> 100 µM
same,Log10 TGI50,SK-MEL-2,−4.39
same,Log10 TGI50,HCC-2998,>−4.00
same,GI50,HCC-2998; [5],25.7 µM
same,GI50,HCC-2998; [6],25.7 µM
same,CC50,HCC-2998; [7],> 100 µM
same,Log10 TGI50,MCF7,>−4.00
same,GI50,MCF7; [5],3.04 µM
same,GI50,MCF7; [6],3.02 µM
same,CC50,MCF7; [7],> 100 µM
same,GI50,MDA-MB-435; [5],1.6 µM
same,GI50,MDA-MB-435; [6],1.58 µM
same,CC50,MDA-MB-435; [7],> 100 µM
same,Log10 TGI50,MDA-MB-435,−5.39
same,GI50,[1],3.58 to 5.55 µM
same,Log10 TGI50,RXF393,−5.36
same,GI50,"RXF393; Homo sapiens, RXF 393, read-out: Growth Inhibition GI50",1.48 µM
same,GI50,"RXF393; Homo sapiens, RXF 393, read-out: Log10 GI50 (converted)",1.48 µM
same,CC50,"RXF393; Homo sapiens, RXF 393, read-out: Log10 LC50 (converted)",> 72.4 µM
same,GI50,SW-620; [5],3.55 µM
same,GI50,SW-620; [6],3.55 µM
same,CC50,SW-620; [7],> 100 µM
same,Log10 TGI50,SW-620,>−4.00
same,GI50,[2],3.96 to 5.36 µM
same,GI50,SK-MEL-28; [5],5.97 µM
same,GI50,SK-MEL-28; [6],6.03 µM
same,CC50,SK-MEL-28; [7],> 100 µM
same,Log10 TGI50,SK-MEL-28,>−4.00
same,GI50,OVCAR-5; [5],32.3 µM
same,GI50,OVCAR-5; [6],32.4 µM
same,CC50,OVCAR-5; [7],> 100 µM
same,Log10 TGI50,OVCAR-5,>−4.00
same,Log10 TGI50,SN12C,>−4.00
same,GI50,SN12C; [5],5.16 µM
same,GI50,SN12C; [6],5.13 µM
same,CC50,SN12C; [7],> 100 µM
same,Log10 TGI50,LOX IMVI,>−4.00
same,GI50,LOX IMVI; [5],5.35 µM
same,GI50,LOX IMVI; [6],5.37 µM
same,CC50,LOX IMVI; [7],> 100 µM
same,GI50,SF-268; [5],5.24 µM
same,GI50,SF-268; [6],5.25 µM
same,CC50,SF-268; [7],> 100 µM
same,Log10 TGI50,SF-268,−4.17
same,Log10 TGI50,BT-549,−4.06
same,GI50,BT-549; [5],7.51 µM
same,GI50,BT-549; [6],7.59 µM
same,CC50,BT-549; [7],> 100 µM
same,GI50,MDA-MB-468; [5],2.31 µM
same,GI50,MDA-MB-468; [6],2.29 µM
same,CC50,MDA-MB-468; [7],> 100 µM
same,Log10 TGI50,MDA-MB-468,−5.15
same,Log10 TGI50,HS578T,−4.52
same,GI50,"HS578T; Homo sapiens, Hs-578T, read-out: Growth Inhibition GI50",3.24 µM
same,GI50,"HS578T; Homo sapiens, Hs-578T, read-out: Log10 GI50 (converted)",3.24 µM
same,CC50,"HS578T; Homo sapiens, Hs-578T, read-out: Log10 LC50 (converted)",> 100 µM
same,GI50,SNB-19; [5],6.26 µM
same,GI50,SNB-19; [6],6.31 µM
same,CC50,SNB-19; [7],> 100 µM
same,Log10 TGI50,SNB-19,>−4.00
same,Log10 TGI50,DU-145,−4.12
same,GI50,DU-145; [5],4.1 µM
same,GI50,DU-145; [6],4.07 µM
same,CC50,DU-145; [7],> 100 µM
same,GI50,[3],2.83 to 5.85 µM
same,Log10 TGI50,HL-60(TB),−4.52
same,GI50,HL-60(TB); [5],3.2 µM
same,GI50,HL-60(TB); [6],3.24 µM
same,CC50,HL-60(TB); [7],> 100 µM
same,Log10 TGI50,NCI-H322M,>−4.00
same,GI50,NCI-H322M; [5],5.58 µM
same,GI50,NCI-H322M; [6],5.62 µM
same,CC50,NCI-H322M; [7],> 100 µM
same,Log10 TGI50,KM12,−4.22
same,GI50,KM12; [5],3.81 µM
same,GI50,KM12; [6],3.8 µM
same,CC50,KM12; [7],> 100 µM
same,Log10 TGI50,NCI-H23,>−4.00
same,GI50,NCI-H23; [5],5.52 µM
same,GI50,NCI-H23; [6],5.5 µM
same,LC50,NCI-H23; [7],> 100 µM
same,GI50,[4],2.31 to 17.3 µM
same,Log10 TGI50,ACHN,>−4.00
same,GI50,ACHN; [5],6.31 µM
same,GI50,ACHN; [6],6.31 µM
same,CC50,ACHN; [7],> 100 µM
